Results published in patent US12311033B2, “Lipid nanoparticle formulations and compositions” (CAPSTAN THERAPEUTICS, INC., priority 2023, dated 2025).

Key:
[1] = target: signal regulatory protein a (SIRPα) (Homo sapiens, UniProt P78324); conditions: reported in Rodriguez et al., 2013; cited from earlier work
[2] = Ionizable cationic lipid in plasma, liver and spleen 24 hours after tLNP, LC/MS/MS; format: in vivo, cynomolgus macaques
Procedure: Samples were taken from cynomolgus macaques that had been intravenously administered either BF1 or F5 tLNPs (two each) at a dosage of 3 mg mRNA/kg in the preceding example. The tLNPs were conjugated to anti-CD5 mentioned in Example 2 as the targeting moiety. 24 hours after administration the animals were sacrificed and plasma, liver, and spleen tissue collected from two animals in each group and assessed by mass spectrometry for presence of these ionizable cationic lipids in order to assess biodegradability and biodistribution of these ionizable cationic lipids.
Briefly, plasma was stabilized for mass spectrometry by addition of 10 μL of formic acid per mL of K2EDTA plasma. Spleen and liver tissue were homogenized in 19 parts of homogenization buffer (50:40:10 0.1% formic acid in 1:1 methanol: acetone/10 mM ammonium formate with 0.2% formic acid/dimethylformamide (DMF)) to 1 part tissue (v/w) using a Geno/Grinder® (SPEX® SamplePrep) set to two minutes at 1500 rpms.
Calibration curves and quality control samples were prepared by spiking control matrix (plasma or homogenate) with CICL1 or ALC-0315 in DMF. The extraction was performed on wet ice by adding 300 μL of crashing solvent (0.1% formic acid in 1:1 methanol: acetonitrile) to 25 μL of sample to which 50 μL of internal standard was added (1:1 isopropyl alcohol: water). The extracts were mixed for four minutes at 1500 rpms and then centrifuged at 3000×g for ten minutes. 200 μL of supernatant was transferred to a clean 96 well plate for LC/MS/MS analysis.
Chromatography was performed on a Waters XBridge BEH C8 column (130 Å, 2.5 μm, 2.1×30 mm) using the following gradient. Mobile phase A (10 mM ammonium format in water with 0.2% formic acid) was held at 20% for 0.3 minutes before being reduced to 5% over 1.2 minutes. This condition was held for one minute before being returned to 80% B (0.1% formic acid in 1:1 methanol: acetonitrile) in 0.1 minutes. The column was then held at 80% B for 1.4 minutes. LC flow rate was held at 0.5 mL/min and the autosampler held at 2-8° C. The mass spectrum was obtained with a triple quadrupole apparatus using atmospheric pressure ionization (Sciex).
Quantitation was performed using a 1/X2 quadratic regression using the peak area for transition 1013.6→968.4 (CICL1) or 766.6→748.4 (ALC-0315) over peak area of transition 1040.6→995.4 of the internal standard.

[3] = Time course of ionizable cationic lipid (LC-MS) and mRNA (digital PCR) in plasma, spleen, liver; format: in vivo; conditions: mice; for plasma levels of lipid at 7 days: CD8-targeted tLNP F9 (CICL1) or BF1 (ALC-0315)
Procedure: To obtain more detailed data a similar experiment was conducted in mice where it was possible to obtain a time course of disappearance of the ionizable cationic lipid and the encapsulated mRNA as well. Mice were intravenously administered 2 mg/kg tLNP of composition BF1 (comprising ALC-0315) or F9 (comprising CICL1) targeted to mouse CD8 and encapsulating an anti-human CD19 CAR, and monitored through 7 days. At each timepoint, 3 mice were sacrificed, and liver, spleen, and plasma were processed for LC-MS-based detection of lipid concentration and digital PCR detection of the mRNA. In plasma, mRNA level was normalized to a known amount of mRNA spiked in a control. In spleen and liver mRNA level was normalized to mRNA for the housekeeping gene GAPDH.

[4] = 24 hours after BF1 tLNP, 3 mg mRNA/kg

Sequence of signal regulatory protein a (SIRPα) (P78324 31-504): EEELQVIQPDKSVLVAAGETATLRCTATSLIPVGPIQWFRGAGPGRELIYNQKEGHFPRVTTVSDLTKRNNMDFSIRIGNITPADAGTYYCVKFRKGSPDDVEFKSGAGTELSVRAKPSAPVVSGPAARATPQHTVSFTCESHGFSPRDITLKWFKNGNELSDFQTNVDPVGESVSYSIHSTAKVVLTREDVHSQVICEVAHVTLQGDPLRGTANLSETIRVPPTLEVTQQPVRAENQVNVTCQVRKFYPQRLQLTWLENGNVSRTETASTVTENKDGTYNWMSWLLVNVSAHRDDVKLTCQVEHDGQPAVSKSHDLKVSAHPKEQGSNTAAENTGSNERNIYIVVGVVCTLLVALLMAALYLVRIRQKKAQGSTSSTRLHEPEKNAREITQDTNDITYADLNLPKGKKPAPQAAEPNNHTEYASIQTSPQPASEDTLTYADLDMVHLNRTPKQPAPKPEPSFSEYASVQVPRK

concentration in liver, fold greater (reference not given) [2, 4]	concentration in spleen, fold greater (reference not given) [2, 4] [fold]	concentration in blood, fold greater than CICL1 ([2]; 24 hours after BF1 versus F5 tLNP, 3 mg mRNA/kg)	Molecule	binding affinity to SIRPα, fold stronger than full-length CD47 protein [1] [fold]	concentrations in blood, liver, and spleen relative to each other ([2]; 24 hours after F5 tLNP, 3 mg mRNA/kg) [fold]	amount of lipid present in blood, liver, and spleen ([2]; 24 hours after F5 tLNP, 3 mg mRNA/kg i.v.)	liver concentration, fold less than for ALC-0315 ([2]; 24 hours, 3 mg mRNA/kg)	spleen concentration, fold less than for ALC-0315 ([2]; 24 hours, 3 mg mRNA/kg) [fold]	biodegradability ([2]; clearance data, at least at the initial step)	time after administration by which lipid levels were falling in the liver ([3]; 2 mg/kg F9 tLNP) [h]	time after administration by which lipid levels were falling in the spleen ([3]; 2 mg/kg F9 tLNP) [h]	plasma levels of lipid at 7 days ([3]; 2 mg/kg i.v.)	lipid levels in spleen and liver ([3]; 2 mg/kg i.v., through 7 days)
–	–	–	NYTCEVTELSREGKTVIELK (SEQ ID NO: 3) [CD47 peptide]	10	–	–	–	–	–	–	–	–	–
–	–	–	CCCCCCCCC(=O)OCC(COC(=O)CCCCCCCC)CC(=O)OCCN(CCOC(=O)CC(COC(=O)CCCCCCCC)COC(=O)CCCCCCCC)C(=O)OCCN(C)C [CICL1]	–	≤ 2	only very small amounts	approximately 127 fold	~35	much more biodegradable than ALC-0315	≤ 2	≤ 1	returned to baseline	–
approximately 14 fold	~11	about 6 fold	CCCCCCCCC(CCCCCC)C(=O)OCCCCCCN(CCCCO)CCCCCCOC(=O)C(CCCCCC)CCCCCCCC (centres unmarked) [ALC-0315, [(4-Hydroxybutyl)azanediyl]di(hexane-6,1-diyl)bis(2-hexyldecanoate), reference compound]	–	–	–	–	–	–	–	–	still detected	remained almost unchanged throughout the 7 days
